Results reported in the CombiSolv-Exp solvation set (Vermeire and Green 2021).
Values belong to the compound of their own block, whether it stands above or below them.

Test: solvent given as SMILES

solvation free energy, 298 K (in NC=O): -4.76 kcal/mol
solvation free energy, 298 K (in O): -3 kcal/mol
SMILES: CC(=O)CCCC(C)C

solvation free energy, 298 K (in O): -6.75 kcal/mol
SMILES: c1ccc2nc3ccccc3cc2c1

solvation free energy, 298 K (in O): -18.2 kcal/mol
SMILES: O=c1[nH]cc(Br)c(=O)[nH]1

SMILES: N#Cc1ccc(O)cc1
solvation free energy, 298 K (in O): -10.2 kcal/mol

solvation free energy, 298 K (in C1CCOC1): -5.45 kcal/mol
solvation free energy, 298 K (in COC(C)=O): -5.46 kcal/mol
solvation free energy, 298 K (in O): -6.77 kcal/mol
SMILES: COCCO

solvation free energy, 298 K (in CC(C)O): -25.4 kcal/mol
solvation free energy, 298 K (in CCCCO): -25.2 kcal/mol
solvation free energy, 298 K (in CCCO): -25.5 kcal/mol
solvation free energy, 298 K (in CCO): -25.5 kcal/mol
SMILES: O=c1cc(-c2ccc(O)c(O)c2)oc2cc(O)cc(O)c12

SMILES: Oc1cccc(Cl)c1
solvation free energy, 298 K (in CCCCCC): -6.52 kcal/mol
solvation free energy, 298 K (in CCCCCCC): -6.51 kcal/mol
solvation free energy, 298 K (in CCCCCCCC): -6.48 kcal/mol
solvation free energy, 298 K (in CCCCCCCCCC): -6.48 kcal/mol
solvation free energy, 298 K (in Cc1ccc(C)cc1): -7.97 kcal/mol
solvation free energy, 298 K (in Cc1cccc(C)c1): -8.05 kcal/mol
solvation free energy, 298 K (in Cc1ccccc1C): -8.07 kcal/mol
solvation free energy, 298 K (in O): -6.62 kcal/mol

solvation free energy, 298 K (in O): -6.78 kcal/mol
SMILES: CCCCCCCOC(=O)c1ccccc1C(=O)OCCCCC

SMILES: O=[N+]([O-])c1ccc(CCl)cc1
solvation free energy, 298 K (in Brc1ccccc1): -5.65 kcal/mol
solvation free energy, 298 K (in CC(C)=O): -10 kcal/mol
solvation free energy, 298 K (in CC(C)CCO): -8.34 kcal/mol
solvation free energy, 298 K (in CC(C)CO): -8.25 kcal/mol
solvation free energy, 298 K (in CCC(C)O): -8.28 kcal/mol
solvation free energy, 298 K (in CCCC(C)O): -8.24 kcal/mol
solvation free energy, 298 K (in CCCCCO): -8.4 kcal/mol
solvation free energy, 298 K (in CCCCO): -8.49 kcal/mol
solvation free energy, 298 K (in CCCCOC(C)=O): -9.67 kcal/mol
solvation free energy, 298 K (in CCCO): -8.54 kcal/mol
solvation free energy, 298 K (in CCOCC): -9.26 kcal/mol
solvation free energy, 298 K (in O): -5.14 kcal/mol

solvation free energy, 298 K (in O): -0.35 kcal/mol
SMILES: C=CC1(C)CCC(=C(C)C)CC1C(=C)C (stereo not drawn)

SMILES: ClC(Br)Br
solvation free energy, 298 K (in CCCCCCCCO): -4.9 kcal/mol

solvation free energy, 298 K (in O): -25.5 kcal/mol
SMILES: OCC1OC(O)C(O)C(O)C1O (stereo not drawn)

SMILES: O=S=O
solvation free energy, 298 K (in C1CCC2CCCCC2C1): -1.26 kcal/mol
solvation free energy, 298 K (in C1CCCCC1): -1.23 kcal/mol
solvation free energy, 298 K (in C1CCOC1): -3.93 kcal/mol
solvation free energy, 298 K (in C1COCCO1): -3.41 kcal/mol
solvation free energy, 298 K (in CC1COC(=O)O1): -3.16 kcal/mol
solvation free energy, 298 K (in CC#N): -3.25 kcal/mol
solvation free energy, 298 K (in CC(=O)N(C)C): -3.52 kcal/mol
solvation free energy, 298 K (in CC(C)=O): -3.52 kcal/mol
solvation free energy, 298 K (in CC(C)CC(C)(C)C): -1.17 kcal/mol
solvation free energy, 298 K (in CCCCCCC): -1.36 kcal/mol
solvation free energy, 298 K (in CCCCCCCC): -1.01 kcal/mol
solvation free energy, 298 K (in CCCCCCCCCCCCCCCC): -1.1 kcal/mol
solvation free energy, 298 K (in CCOC(C)=O): -3.22 kcal/mol
solvation free energy, 298 K (in CN1CCCC1=O): -3.11 kcal/mol
solvation free energy, 298 K (in CO): -2.84 kcal/mol
solvation free energy, 298 K (in COC(=O)CC#N): -2.82 kcal/mol
solvation free energy, 298 K (in COC(C)=O): -3.08 kcal/mol
solvation free energy, 298 K (in COCCOCCO): -4.09 kcal/mol
solvation free energy, 298 K (in COCCOCCOC): -4.02 kcal/mol
solvation free energy, 298 K (in COCCOCCOCCOC): -3.89 kcal/mol
solvation free energy, 298 K (in COCCOCCOCCOCCOC): -3.85 kcal/mol
solvation free energy, 298 K (in CS(C)=O): -4.71 kcal/mol
solvation free energy, 298 K (in ClCCCl): -2.55 kcal/mol
solvation free energy, 298 K (in N#Cc1ccccc1): -2.59 kcal/mol
solvation free energy, 298 K (in O): -2.07 kcal/mol
solvation free energy, 298 K (in OCCO): -2.88 kcal/mol
solvation free energy, 298 K (in OCc1ccccc1): -2.8 kcal/mol
solvation free energy, 298 K (in c1ccncc1): -4.82 kcal/mol

SMILES: CC(C)[N+](=O)[O-]
solvation free energy, 298 K (in CCCCCCC): -3.81 kcal/mol
solvation free energy, 298 K (in ClC(Cl)(Cl)Cl): -4.57 kcal/mol
solvation free energy, 298 K (in O): -3.13 kcal/mol
solvation free energy, 298 K (in c1ccccc1): -5.07 kcal/mol
